System: rad51c, rad51d, xrcc2 and xrcc3 mutant DT40 cells
Test: colony survival assay on methyl cellulose containing cisplatin
Assay type: cell-based, avian
Settings: continuous cisplatin in methyl cellulose plate; each mutant vs normal cells
Protocol: Further, the cells were plated on a plate of methyl cellulose containing cisplatin (manufactured by NIPPON KAYAKU CO., LTD.), and cultured in an atmosphere of 5% CO2 and 20% O2, at humidity of 100%, and 39° C. Thereafter, the colony survival assay was carried out, thereby evaluating sensitivity of the cells to cisplatin.
However, as shown in the panel (B) of FIG. 3, each mutant was about 8-fold more sensitive than normal cells to killing by cisplatin (cis-diamminedichloroplatinum-II), a DNA cross-linking agent that has been widely used in chemotherapy. The complementation of these mutants with human cDNAs corresponding to mutant genes in these mutants restored their cisplatin sensitivity to nearly normal levels.

SMILES: N.N.[Cl][Pt][Cl] [cisplatin, cis-diamminedichloroplatinum-II]
- sensitivity of each mutant to killing relative to normal cells: about 8 fold
